In patent publication US20250345392A1, “ANNEXIN A1 LIQUID PHARMACEUTICAL COMPOSITION” (ResoTher Pharma A/S, priority 2022, published 2025):
Like-named read-outs stand apart in the source and are kept apart here. Ends that are not written are not given here.

Test: Clinical test in humans, single 30-min i.v. infusion, plasma PK
Type: in vivo
Conditions: human; for AUC(0-inf) / Cmax / Vd / clearance / AUC(0-t) / half-life / Tmax: in vivo, iv
Description: A total of 8 healthy subjects were included in each group. Group 1 received 25 μg/kg of Peptide 1, Group 2 received 50 μg/kg of Peptide 1, Group 3 received 100 μg/kg of Peptide 1, Group 4 received 150 μg/kg of Peptide 1, Group 5 received 200 μg/kg of Peptide 1 and Group 7 received 400 μg/kg of Peptide 1.
The tested liquid pharmaceutical composition has a pH of 8.2-8.4, and comprises the following: • i) 5 mg/ml of Peptide 1, • ii) 4% (w/w) mannitol, • iii) 1% (w/w) sucrose, • iv) 0.01% (w/w) Polysorbate-80, • v) 10 mM glycyl-glycine, and • vi) sterile water for injection.
In these groups, 6 subjects received the active treatment (i.e. a single Peptide 1 30-min intravenous (i.v.) infusion corresponding to the above doses) and 2 received the placebo. In order to prevent any anticipated unblinding, the subjects under active treatment were recorded by the bioanalytical laboratory.
Blood samples were collected for PK purpose for Peptide 1 determinations on Day 1 at the following time points: pre-dose, then, 10 min, 20 min, 30 min (30 min=0.5), 0.75, 1.0, 1.5, 2.0, 2.5, 3.0, 4.0, 6.0, 8.0, 12.0, 16.0 and 24.0 h after the infusion start.
Venous whole blood samples were collected from all subjects.
Plasma samples were analyzed for Peptide 1 using validated Liquid chromatography—Tandem Mass spectrometry (LC-MS/MS) methods by Charles River Laboratories (CRL).
Derivation of PK parameters were carried out by PhinC Development using Phoenix WinNonlin® (Version Phoenix 8.1—Certara—Princeton—USA). A non-compartmental analysis (NCA) approach was chosen.
For the calculation of the PK parameters and characteristics the following rules were applied: • All the plasma concentrations validated by the bioanalytical laboratory and provided to the pharmacokineticist were used for the PK analysis. • The theoretical PK blood sampling time points were used. • At time points in the lag-time between time zero and the first concentration equal or above limit of quantification (LOQ), concentrations below the LOQ (BLQ) were set to zero (0). • Concentrations BLQ between 2 concentrations equal or above LOQ were considered as missing. • Trailing concentrations (at time point between time of last measurable concentrations and time of last blood sample) BLQ were not used in calculations. • For concentration above the upper limit of quantification and reported as above limit of quantification (ALQ) in the final plasma concentration tables, ALQ was considered as missing for the PK analysis. • Not reported (NR) concentration was excluded from the PK analysis. • For the first administration, if pre-dose concentration was less than or equal to 5% of Cmax value in a PK profile, the subject's data was included in all PK measurements and calculations without any adjustments. If the pre-dose value was greater than 5% of Cmax, the subject was dropped from all statistical evaluations.
The following PK parameters of Peptide 1, were derived for each subject receiving the active treatment on Day 1: • Cmax: The observed maximum concentration in plasma measured in a subject after dosing identified by inspection of the plasma drug concentration versus (vs.) time data by WinNonlin®. • tmax: The time at which Cmax was apparent, identified by inspection of the plasma drug concentration vs. time data by Phoenix WinNonlin®. • AUC0-24: The area under the concentration-time curve from time zero (pre-dose) to 24 h was calculated using a linear trapezoidal method. AUC0-24 was only calculated if there were at least 3 concentrations above LOQ. • AUC0-t: The area under the concentration-time curve from time zero (pre-dose) to the time of last quantifiable concentration was calculated using a linear trapezoidal method. The AUC was only calculated if there were at least 3 concentrations above LOQ. • ke: The terminal plasma elimination rate-constant was estimated from log-linear regression analysis of the terminal phase of the plasma concentration-time profile. […]

[1] = 25 ug/kg, single 30-min i.v. infusion 25 μg/kg, GM
[2] = 50 ug/kg, single 30-min i.v. infusion 50 μg/kg, mean
[3] = 100 ug/kg, single 30-min i.v. infusion 100 μg/kg, mean
[4] = 150 ug/kg, single 30-min i.v. infusion 150 μg/kg, GM
[5] = 150 ug/kg, single 30-min i.v. infusion 150 μg/kg, mean
[6] = 200 ug/kg, single 30-min i.v. infusion 200 μg/kg, GM
[7] = 400 ug/kg, single 30-min i.v. infusion 400 μg/kg, mean
[8] = single 30-min i.v. infusion 25 μg/kg, mean
[9] = single 30-min i.v. infusion 50 μg/kg, GM
[10] = single 30-min i.v. infusion 100 μg/kg, GM
[11] = single 30-min i.v. infusion 200 μg/kg, mean
[12] = single 30-min i.v. infusion 400 μg/kg, GM
[13] = single 30-min i.v. infusion 400 μg/kg, mean

## AMVSEFLKQAWFIENEEQEYVQTLKSSKGGPGSAVSPYPTFNPSSDV-NH2 [Peptide 1]
Between 100 μg/kg and 400 μg/kg (dose increased by 4-fold)
  increase of exposure parameters (Cmax and AUCs): about 4.3 fold
Between 150 μg/kg and 400 μg/kg (dose increased by 2.7-fold)
  increase of exposure parameters (Cmax and AUCs): around 3.2 fold
Between 200 μg/kg and 400 μg/kg (dose increased by 2 fold)
  increase of exposure parameters (Cmax and AUCs): around 2 fold
[1]
  AUC(0-inf): 211 ng·h/mL
  Cmax: 161 ng/mL
  Vd: 0.13 L/kg
  clearance: 2 mL/min/kg
  Tmax: 30 min
25 ug/kg, single 30-min i.v. infusion 25 μg/kg, GM, read-out: AUC0-24
  AUC(0-t): 211 ng·h/mL
25 ug/kg, single 30-min i.v. infusion 25 μg/kg, GM, read-out: AUC0-t
  AUC(0-t): 130 ng·h/mL
25 ug/kg, single 30-min i.v. infusion 25 μg/kg, GM, read-out: t1/2 (converted)
  half-life: 47.4 min
25 ug/kg, single 30-min i.v. infusion 25 μg/kg, mean
  Vd: 0.14 L/kg
25 ug/kg, single 30-min i.v. infusion 25 μg/kg, mean, read-out: AUC0-t
  AUC(0-t): 132 ng·h/mL
50 ug/kg, single 30-min i.v. infusion 50 μg/kg, GM
  AUC(0-inf): 456 ng·h/mL
50 ug/kg, single 30-min i.v. infusion 50 μg/kg, GM, read-out: AUC0-24
  AUC(0-t): 457 ng·h/mL
50 ug/kg, single 30-min i.v. infusion 50 μg/kg, GM, read-out: AUC0-t
  AUC(0-t): 369 ng·h/mL
50 ug/kg, single 30-min i.v. infusion 50 μg/kg, GM, read-out: t1/2 (converted)
  half-life: 54 min
[2]
  AUC(0-inf): 464 ng·h/mL
  Cmax: 375 ng/mL
  Vd: 0.14 L/kg
  clearance: 1.83 mL/min/kg
50 ug/kg, single 30-min i.v. infusion 50 μg/kg, mean, read-out: AUC0-24
  AUC(0-t): 464 ng·h/mL
50 ug/kg, single 30-min i.v. infusion 50 μg/kg, mean, read-out: AUC0-t
  AUC(0-t): 378 ng·h/mL
50 ug/kg, single 30-min i.v. infusion 50 μg/kg, mean, read-out: t1/2 (converted)
  half-life: 55.2 min
100 ug/kg, single 30-min i.v. infusion 100 μg/kg, GM
  Cmax: 899 ng/mL
100 ug/kg, single 30-min i.v. infusion 100 μg/kg, GM, read-out: t1/2 (converted)
  half-life: 67.8 min
[3]
  AUC(0-inf): 1110 ng·h/mL
  Cmax: 916 ng/mL
  Vd: 0.15 L/kg
  clearance: 1.5 mL/min/kg
100 ug/kg, single 30-min i.v. infusion 100 μg/kg, mean, read-out: AUC0-24
  AUC(0-t): 1110 ng·h/mL
100 ug/kg, single 30-min i.v. infusion 100 μg/kg, mean, read-out: AUC0-t
  AUC(0-t): 1000 ng·h/mL
100 ug/kg, single 30-min i.v. infusion 100 μg/kg, mean, read-out: t1/2 (converted)
  half-life: 69 min
[4]
  AUC(0-inf): 1490 ng·h/mL
  Cmax: 1250 ng/mL
  Vd: 0.16 L/kg
150 ug/kg, single 30-min i.v. infusion 150 μg/kg, GM, read-out: AUC0-24
  AUC(0-t): 1490 ng·h/mL
150 ug/kg, single 30-min i.v. infusion 150 μg/kg, GM, read-out: AUC0-t
  AUC(0-t): 1370 ng·h/mL
150 ug/kg, single 30-min i.v. infusion 150 μg/kg, GM, read-out: t1/2 (converted)
  half-life: 67.8 min
[5]
  AUC(0-inf): 1520 ng·h/mL
  Cmax: 1280 ng/mL
  Vd: 0.17 L/kg
  clearance: 1.67 mL/min/kg
150 ug/kg, single 30-min i.v. infusion 150 μg/kg, mean, read-out: AUC0-24
  AUC(0-t): 1520 ng·h/mL
150 ug/kg, single 30-min i.v. infusion 150 μg/kg, mean, read-out: AUC0-t
  AUC(0-t): 1400 ng·h/mL
150 ug/kg, single 30-min i.v. infusion 150 μg/kg, mean, read-out: t1/2 (converted)
  half-life: 69 min
[6]
  AUC(0-inf): 2280 ng·h/mL
  Cmax: 1700 ng/mL
  Vd: 0.18 L/kg
  clearance: 1.5 mL/min/kg
  Tmax: 30 min
200 ug/kg, single 30-min i.v. infusion 200 μg/kg, GM, read-out: AUC0-24
  AUC(0-t): 2280 ng·h/mL
200 ug/kg, single 30-min i.v. infusion 200 μg/kg, GM, read-out: AUC0-t
  AUC(0-t): 2120 ng·h/mL
200 ug/kg, single 30-min i.v. infusion 200 μg/kg, GM, read-out: t1/2 (converted)
  half-life: 86.4 min
[7]
  AUC(0-inf): 4870 ng·h/mL
  Vd: 0.19 L/kg
  clearance: 1.33 mL/min/kg
400 ug/kg, single 30-min i.v. infusion 400 μg/kg, mean, read-out: AUC0-24
  AUC(0-t): 4870 ng·h/mL
400 ug/kg, single 30-min i.v. infusion 400 μg/kg, mean, read-out: AUC0-t
  AUC(0-t): 4720 ng·h/mL
400 ug/kg, single 30-min i.v. infusion 400 μg/kg, mean, read-out: t1/2 (converted)
  half-life: 98.4 min
[8]
  AUC(0-inf): 211 ng·h/mL
  Cmax: 162 ng/mL
  clearance: 2 mL/min/kg
Single 30-min i.v. infusion 25 μg/kg, mean, read-out: AUC0-24
  AUC(0-t): 211 ng·h/mL
Single 30-min i.v. infusion 25 μg/kg, mean, read-out: t1/2 (converted)
  half-life: 47.4 min
[9]
  Cmax: 371 ng/mL
  Vd: 0.14 L/kg
  clearance: 1.83 mL/min/kg
[10]
  AUC(0-inf): 1100 ng·h/mL
  Vd: 0.15 L/kg
  clearance: 1.5 mL/min/kg
Single 30-min i.v. infusion 100 μg/kg, GM, read-out: AUC0-24
  AUC(0-t): 1100 ng·h/mL
Single 30-min i.v. infusion 100 μg/kg, GM, read-out: AUC0-t
  AUC(0-t): 991 ng·h/mL
Single 30-min i.v. infusion 150 μg/kg, GM
  clearance: 1.67 mL/min/kg
[11]
  AUC(0-inf): 2280 ng·h/mL
  Cmax: 1700 ng/mL
  Vd: 0.18 L/kg
  clearance: 1.5 mL/min/kg
Single 30-min i.v. infusion 200 μg/kg, mean, read-out: AUC0-24
  AUC(0-t): 2280 ng·h/mL
Single 30-min i.v. infusion 200 μg/kg, mean, read-out: AUC0-t
  AUC(0-t): 2120 ng·h/mL
Single 30-min i.v. infusion 200 μg/kg, mean, read-out: t1/2 (converted)
  half-life: 87 min
[12]
  AUC(0-inf): 4840 ng·h/mL
  Cmax: 3400 ng/mL
  Vd: 0.19 L/kg
  clearance: 1.33 mL/min/kg
Single 30-min i.v. infusion 400 μg/kg, GM, read-out: AUC0-24
  AUC(0-t): 4840 ng·h/mL
Single 30-min i.v. infusion 400 μg/kg, GM, read-out: AUC0-t
  AUC(0-t): 4690 ng·h/mL
Single 30-min i.v. infusion 400 μg/kg, GM, read-out: t1/2 (converted)
  half-life: 97.2 min
[13]
  Cmax: 3420 ng/mL
  Vd: ~0.19 L/kg
  clearance: ~1.33 mL/min/kg
Single 30-min i.v. infusion, range at all dose levels, read-out: GM t1/2
  half-life: 48 to 96 min
Single 30-min i.v. infusion, all subjects
  time of first measurable concentrations after the start of infusion: 0.16 h
Single 30-min i.v. infusion, highest dose
  time up to which concentrations were measurable in all subjects after the start of infusion: at least 6 hours
Single 30-min i.v. infusion, lowest dose
  time up to which concentrations were measurable in all subjects after start of the infusion: at least 1 hour
50 ug/kg, single 30-min i.v. infusion 50 μg/kg, median
  Tmax: 30 min
100 ug/kg, single 30-min i.v. infusion 100 μg/kg, median
  Tmax: 30 min
150 ug/kg, single 30-min i.v. infusion 150 μg/kg, median
  Tmax: 30 min
400 ug/kg, single 30-min i.v. infusion 400 μg/kg, median
  Tmax: 30 min
Single 30-min i.v. infusion, all subjects (time of the end of infusion)
  Tmax: 30 min
